Laboratory results published in patent US7981878B2, “Tumor treatment with gliotoxin derivatives” (priority 2005, dated 2011).

Legend:
[1] = tested on: K 562, U 937, HCT-15, HCT-116, SW946, LX-1, P 388, colon-26 cell lines; settings: as indicated in EP 926 242 A1; cited from earlier work
[2] = tested on: Notch2 (N2^IC); experiment: Nuclear Notch2 activity in B-CLL cells by EMSA (band shift assay); format: cell-based, human; settings: B-CLL cell cultures incubated with 50 nM Dapt
Experimental: FIG. 3: Gliotoxin is a potent Notch2 trans-activation inhibitor in B-CLL cells. (A) EMSA showing the inhibition of DNA-bound Notch2IC complexes in the presence of 0.2 μg Gliotoxin. B-CLL samples (n=10) were cultured in the presence of 1 ng/ml TPA with or without 0.2 μM Gliotoxin for 24 hours. Nuclear extracts were subjected to EMSA using a oligonucleotide probe spanning a well defined CBF1/NotchIC binding site derived from the CD23a promoter. (B). Corresponding FACS analysis (plus 10 additional B-CLL samples) showing the downregulation of the Notch2 target gene CD23 as well as the induction of apoptosis of Gliotoxin treated B-CLL samples. Columnes represent the percentage of CD19^+CD23^+ (grey bars) and apoptotic cells (black bars: including early apoptotic cells single positive for AnnexinV, and late apoptotic cells double positive for AnnexinV and probidium iodide), respectively.
As drug screening model, a cell culture system was established which conserves the phenotype of freshly isolated B-CLL cells (3×10^6 B-CLL cells/ml RPMI medium+10% FCS, supplemented with 1 ng/ml of TPA). Notch2 activity in the cell nucleus is determined by means of EMSA (electrophoretic mobility shift assay) experiments, and the cell viability (Probidium iodide/annexinV) and CD23 expression (Notch2 target gene) is determined by means of FACS (flow cytometry) analyses, respectively. […]

[3] = target: γ-secretase; settings: γ-secretase inhibitor; cited from earlier work

acetylgliotoxin
efficacy against tumour cell lines [1]: effective

C[C@H](NC(=O)Cc1cc(F)cc(F)c1)C(=O)N[C@H](C(=O)OC(C)(C)C)c1ccccc1 [Dapt, reference compound]
influence on the activity of N2^IC [2]: no influence
IC50 [3]: 5 to 10 nM
